Reference: US5607691A, “Compositions and methods for enhanced drug delivery” (priority 1995, dated 1997)
Structures can show the parent of a compound that is named as a salt.

Test: in vitro
Assay type: in vitro ADME, human
Details: Table 5; human serum, 37° C.
Text: Table 4 lists the serum half-lives for several model compounds and two representative pharmaceutical agent-chemical modifier complexes using an in vitro assay system described in the Experimental section below. Of course, the serum half-lives will vary in vivo depending upon the age and health condition of the patient. Each complex comprises a model compound or a pharmaceutical agent, a spacer group, and a chemical modifier. Many of the model compounds utilize 4-nitrophenyl(ethanol, propanol, or cyclohexanol) or 4-nitrophenylethylamine as the "model" pharmaceutical agent. A more complete listing of serum half-lives may be found in the Experimental section below.
General procedure for serum hydrolysis of pharmaceutical agent-modifier complexes
Stock solutions (6 mM) of the pharmaceutical agent-modifier complexes were prepared in ethanol (by vortexing, sonication or warming at 37° C. if necessary). If required for solubility, a drop of dimethylsulfoxide, dimethylformamide or methanol may be added. (Acetonitrile cannot be used because it deactivates the serum enzymes.)
HPLC separation methods were established for each study by dilution of the above stock solution (6 μl) in acetonitrile (1 ml) to give a 36 μM solution. Samples (10 μl) were injected onto a Nucleosil 5C8 (250×4 mmID) and guard column (11×4 mm ID) and eluted with a mobile phase of approximately 65% HPLC grade water and 35% of a solution of 0.1% trifluoroacetic acid in acetonitrile, the exact proportions being adjusted in each case to give optimum separation and run times.
Freshly defrosted human serum (3 ml, Sigma) was warmed at 37° C. for five minutes and then 60 μl of the agent-modifier complex stock solution was added with vortexing. […] The aliquots were added to 800 μl of 2% zinc sulfate solution in a 1.5 ml disposable microcentrifuge tube, vortexed immediately and centrifuged at 14,000 RPM for 3 minutes. The supernatants (10 μl) were then injected onto the HPLC and peak areas were used to determine the % remaining. Serum blanks were prepared similarly by addition of serum to the zinc sulfate solution followed by centrifugation, and time=0 samples were also prepared by adding serum to the zinc sulfate solution followed by addition of the complex and separation by centrifugation. The time=0 samples, as well as the original stock solutions, were also used to study the stability of the complex in the absence of enzyme. Half-lives were calculated using the equation
by plotting time (x) vs. ln % remaining (y) to obtain the slope (m) and the y intercept (b).

SMILES | Serum Half-life [min]
CCCC(=O)OCn1c(=O)c(F)cn(C(C)OC(=O)CCC[N+](C)(C)C)c1=O.[I-] (centres unmarked) [5-fluorouracil-1-(4-trimethylammoniobutyroyl-1-oxyethyl)-3-(butyroyloxymethyl), iodide salt] | 9.7

Same assay, conditions: human, serum

SMILES | In vitro Half-Life [min]
O=C(OCCc1ccc([N+](=O)[O-])cc1)c1ccc(N2CCOCC2)cc1 [2-(4-nitrophenyl)ethanol 4-morpholino benzoate] | 0.762

Same assay, conditions: human, serum, Table 4; human serum, 37° C.; read-out: In vitro Half-Life (converted)

SMILES | half-life [min]
C[N+](C)(C)CCOC(=O)OC1CCC(c2ccc([N+](=O)[O-])cc2)CC1 (centres unmarked) [4-(4-nitrophenyl)cyclohexanol choline carbonate ester, iodide salt] | 0.327
CC(=O)O[C@H](CC(=O)NCCc1ccc([N+](=O)[O-])cc1)C[N+](C)(C)C [2-(4-nitrophenyl)ethylamine 3-(O-acetyl)-L-carnitine amide, chloride salt] | 1570
CC(=O)O[C@H](CC(=O)OCCCCCCOC(=O)O[C@H]1CC[C@H]2[C@@H]3CCc4cc(O)ccc4[C@H]3CC[C@]12C)C[N+](C)(C)C [3-hydroxy-estra-1,3,5-trien-17β-yl 6-(O-acetyl-L-carnitinato)hexyl carbonate, chloride salt] | 240
C[N+](C)(C)CCOC(=O)OCCc1ccc([N+](=O)[O-])cc1 [2-(4-nitrophenyl)ethanol choline chloride carbonate ester] | < 0.0333

Same assay, conditions: human, serum, Table 5; human serum, 37° C.; read-out: Serum Half-life (converted)

SMILES | half-life [min]
C[N+](C)(C)CCOC(=O)OC1CCC(c2ccc([N+](=O)[O-])cc2)CC1 (centres unmarked) [4-(4-nitrophenyl)cyclohexanol choline carbonate ester, iodide salt] | 0.327
CC1OC(OC2CCC3(C)C(CCC4C3CC(OC(=O)CCCCC[N+](C)(C)C)C3(C)C(C5=CC(=O)OC5)CCC43O)C2)CC(O)C1OC1CC(O)C(OC2CC3OC(=O)OC3C(C)O2)C(C)O1 (centres unmarked) [digoxin-12-[6-(N,N,N-trimethylamino)hexanoate]-3'"-4'"-cyclic carbonate, bromide salt] | 20200
C[n+]1cccc(C(=O)OC[C@H](NC(=O)OCc2ccccc2)C(=O)OCc2ccccc2)c1 [serine, L-isomer, HO-trigonellate ester, N-CBZ, benzyl ester] | 5
CC1OC(OC2CCC3(C)C(CCC4C3CC(O)C3(C)C(C5=CC(=O)OC5)CCC43O)C2)CC(O)C1OC1CC(O)C(OC2CC3OC(=O)OC3C(C)O2)C(C)O1 (centres unmarked) [digoxin-3'",4'"-cyclic carbonate] | 0.15
COc1ccc2c(c1)c(CC(=O)OCCN(C)C(=O)CCCCCN(C)C)c(C)n2C(=O)c1ccc(Cl)cc1 [indomethacin 2-[N-methyl-N-(6'-N',N'-dimethylamino)hexanamido]ethyl ester] | 13.5
CCCCCCCCCCCCCCCC(=O)O[C@H](CC(=O)O[C@H]1CC[C@H]2[C@@H]3CCC4=CC(=O)CC[C@]4(C)[C@H]3CC[C@]12C)C[N+](C)(C)C [testosterone-17-(O-palmityl-L-carnitinate), chloride salt] | 7060
COc1cc(NC(=O)OCC[N+](C)(C)C)c(Cl)cc1C(=O)N[C@H]1CCN(CCCOc2ccc(F)cc2)C[C@H]1OC (relative stereo) [cisapride choline carbamate, chloride salt] | 150
O=C(OCCc1ccc([N+](=O)[O-])cc1)c1ccc(CN2CCOCC2)cc1 [2-(4-nitrophenyl)ethanol 4-morpholinomethyl-benzoate] | 0.762
CC(=O)O[C@H](CC(=O)NCCc1ccc([N+](=O)[O-])cc1)C[N+](C)(C)C [2-(4-nitrophenyl)ethylamine 3-(O-acetyl)-L-carnitine amide, chloride salt] | 1570
CCCCCCCCCCCC(=O)OCn1cc(F)c(=O)[nH]c1=O [5-fluorouracil-1-(lauroyloxmethyl)] | 3.23
CC(CCCC(=O)OC1C(O)CC(OC2C(O)CC(OC3C(O)CC(OC4CCC5(C)C(CCC6C5CC(O)C5(C)C(C7=CC(=O)OC7)CCC65O)C4)OC3C)OC2C)OC1C)OC(=O)CCC[N+](C)(C)C (centres unmarked) [digoxin-4'"-[5-(4-trimethylaminobutyroyloxy)-hexanoate] bromide salt] | 840
CC(=O)OC(CC(=O)OC1C(O)CC(OC2C(O)CC(OC3C(O)CC(OC4CCC5(C)C(CCC6C5CC(O)C5(C)C(C7=CC(=O)OC7)CCC65O)C4)OC3C)OC2C)OC1C)C[N+](C)(C)C (centres unmarked) [digoxin-4'"-(O-acetylcarnitinate) chloride salt] | 5
CCOC(=O)Cc1c(C)n(C(=O)c2ccc(Cl)cc2)c2ccc(OC)cc12 [indomethacin ethyl ester, reference compound] | > 5760
CCOC(=O)C[C@H](C[N+](C)(C)C)OC(=O)O[C@H]1CC[C@H]2[C@@H]3CCC4=CC(=O)CC[C@]4(C)[C@H]3CC[C@]12C [testosterone-17-(L-carnitineethyl ester) carbonate, iodide salt] | 49
CC(=O)O[C@H](CC(=O)OC[C@H](NC(=O)OCc1ccccc1)C(=O)OCc1ccccc1)C[N+](C)(C)C [serine, L-isomer, HO-(O-acetyl-L-carnitine ester) N-CBZ, benzyl ester] | 21
COc1ccc2c(c1)c(CC(=O)O[C@H](CC(=O)O)C[N+](C)(C)C)c(C)n2C(=O)c1ccc(Cl)cc1 [O-indomethacinyl-(L-carnitine hydrochloride)] | > 30
C[N+](C)(C)CCOC(=O)OC1N=C(c2ccccc2Cl)c2cc(Cl)ccc2NC1=O (centres unmarked) [lorazepam-3-choline carbonate, chloride salt] | 132
CCn1cc(C(=O)OCC[N+](C)(C)C)c(=O)c2ccc(C)nc21 [nalidixic acid, choline ester, bromide salt] | 66
C[N+](C)(C)CCOC(=O)OCCc1ccc([N+](=O)[O-])cc1 [2-(4-nitrophenyl)ethanol choline chloride carbonate ester] | < 0.0333
C[C@H]1O[C@@H](O[C@H]2[C@@H](O)C[C@H](O[C@H]3[C@@H](O)C[C@H](O[C@H]4CC[C@@]5(C)[C@H](CC[C@@H]6[C@@H]5C[C@@H](OC(=O)OCCCCCCOC(=O)C[N+](C)(C)C)[C@]5(C)[C@@H](C7=CC(=O)OC7)CC[C@]65O)C4)O[C@@H]3C)O[C@@H]2C)C[C@@H]2OC(=O)O[C@@H]21 [digoxin-12-[1-(6-betainoyloxyhexyl)]carbonate-3"',4"'-cyclic carbonate, chloride salt] | 28200
CCCCCCCCCCCCCCCC(=O)OC(CC(=O)OC1C(O)CC(OC2C(O)CC(OC3C(O)CC(OC4CCC5(C)C(CCC6C5CC(O)C5(C)C(C7=CC(=O)OC7)CCC65O)C4)OC3C)OC2C)OC1C)C[N+](C)(C)C (centres unmarked) [digoxin-4'"-(O-palmitoylcarnitinate) chloride salt] | 19
CC(=O)OC(CC(=O)NCCCCCCOC(=O)O[C@H]1[C@@H](O)C[C@H](O[C@H]2[C@@H](O)C[C@H](O[C@H]3[C@@H](O)C[C@H](O[C@H]4CC[C@@]5(C)[C@H](CC[C@@H]6[C@@H]5CC[C@]5(C)[C@@H](C7=CC(=O)OC7)CC[C@]65O)C4)O[C@@H]3C)O[C@@H]2C)O[C@@H]1C)C[N+](C)(C)C (some centres unmarked) [digitoxin-4"'-6-[O-(acetylcarnitinamido)hexyl]carbonate ester] | 34.8
COc1ccc2c(c1)c(CC(=O)CO)c(C)n2C(=O)c1ccc(Cl)cc1 [indomethacin hydroxymethyl ketone] | 900
COc1cc(NC(=O)c2ccc[n+](C)c2)c(Cl)cc1C(=O)N[C@H]1CCN(CCCOc2ccc(F)cc2)C[C@H]1OC (relative stereo) [cisapride-(N-(1-methylpyridinium-3-carboxamide), chloride salt] | 60
CCN(CC)C(=O)COC(=O)Cc1c(C)n(C(=O)c2ccc(Cl)cc2)c2ccc(OC)cc12 [indomethacin (N,N-diethylglycolamide) ester] | 22.8
CCCC(=O)OCn1c(=O)c(F)cn(COC(=O)CCC[N+](C)(C)C)c1=O [5-fluorouracil-1-(4-trimethylammoniobutyroyloxymethyl)-3-(butyroyloxymethyl), iodide salt] | 204
